Here are results for 5 molecules from paper PMC9174238, “pH- and concentration-dependent supramolecular assembly of a fungal defensin plectasin variant into helical non-amyloid fibrils” (Nature Communications, 2022).

Series [1] can be described thus: pKa by 2D 1H-1H TOCSY NMR pH titration. It counts as physicochemical. The following applies: imidazole ring protons, 50 mM phosphate buffer, 298 K. An excerpt: 2D ^1H–^1H TOCSY NMR spectra were acquired by sampling the FID for 117 and 14.5 milliseconds by acquiring 1024 × 128 complex data points in the direct and indirect dimensions, respectively. For these ^1H–^1H TOCSY NMR experiments, 16 transients were acquired with an inter-scan relaxation delay of 1 second. All NMR spectra were processed with ample zero filling in all spectral dimensions in Bruker Topspin 3.5 pl7 software and integrated into the same software. Data were plotted in proFit 7 (Quantum Soft). Titration curves were fitted to the Henderson-Hasselbalch equation in proFit 7 as δobs=(δA+10^pKa−pH*δHA)/(1+10^pKa−pH), where δobs is the measured chemical shift, δA is the chemical shift of the deprotonated form and δHA is the chemical shift of the protonated form. The pH of the sample was determined after the measurement.

For the next series, the system named is female NMRI mice. To be noted: single intravenous bolus 50 mg/kg, observed 4 days, previously performed, ref ICAAC 2006 poster F2-1166; cited from earlier work. An excerpt:
page 11: homeostatic conditions.

The conditions of series [2]: cited from earlier work. An excerpt: The structure of plectasin is stabilized by three disulfide bridges (C4-C30; C15-C37; C19-C39), which is typical for this type of defensins and leads to high confor ...
Series [3] is described as follows: Thioflavin T fluorescence measurements. In kind it is physicochemical. To be noted: Gly-HCl pH 2.5; dissolved; c=2 mg/mL; excitation 440±10 nm, emission 490±10 nm. On the procedure: Plectasin stock solutions were dialyzed against 10 mM acetate buffer pH 5.5. A final concentration of 2 mg/mL (450 µM) was obtained by dilution with the dialysis buffer and ThT was added to a final concentration of 20 µM. The fluorescence was monitored after each cycle at 490 ± 10 nm with excitation at 440 ± 10 nm with a gain of 1000 using FLOUstar Omega multi-mode microplate reader (BMG Labtech). Omega software was used to control the plate reader and export the data. Insulin was fibrillated at 40 °C with agitation (600 rpm) for 150 s every 5 min[79]. Additionally, the fluorescence of a sample containing insulin fibrils at a protein concentration of 2 mg/mL was compared to freshly dialyzed plectasin in 10 mM acetate buffer pH 3.5 and pH 5.5 and a sample diluted into 10 mM acetate buffer pH 5.5 and 10 mM phosphate buffer pH 6.5, equilibrated for 12 h was compared (end-point measurement).

The target in series [4] is plectasin variant D9S Q14K V36L (PPI42). The series can be described thus: dynamic light scattering; pH series, phosphate buffer above pH 6, 2 mg/mL (450 µM), 25 °C.
The next series concerns the target His16 (position 16, …). Briefly: NMR. The following applies: 298 K; not stated (50 mM buffer; no added salt mentioned); 50 mM phosphate according to the Fig. 6b caption. Methods: 50 mM phosphate or 50 mM acetate, with the stock dialysed against 10 mM acetate pH 3.5 and diluted into the final buffer.; Folded, disulfide-intact soluble monomer at 250 µM total protein; fibrils forming at higher pH are NMR-invisible.

For another series, the target named is His18 (position 18, …). The series can be described thus: NMR. The following applies: 298 K; not stated (50 mM buffer; no added salt mentioned); 50 mM phosphate according to the Fig. 6b caption. Methods: 50 mM phosphate or 50 mM acetate, with the stock dialysed against 10 mM acetate pH 3.5 and diluted into the final buffer.; Folded, disulfide-intact soluble monomer at 250 µM total protein; fibrils forming at higher pH are NMR-invisible.

Where a SMILES comes first, the peptide text is derived from it. Bridges are numbered along the chain shown (N, C = ends).

In the case of `CC[C@H](C)[C@@H]1NC(=O)[C@H](CO)NC(=O)[C@H](CCCCN)NC(=O)[C@@H]2CSSC[C@@H](C(=O)N[C@@H](Cc3ccc(O)cc3)C(=O)O)NC(=O)[C@H](CCCCN)NC(=O)[C@@H]3CSSC[C@H](NC(=O)[C@H](CCCCN)NC(=O)[C@H](CCSC)NC(=O)[C@H](CC(=O)O)NC(=O)[C@H](CC(=O)O)NC(=O)[C@H](CCC(=O)O)NC(=O)[C@H](CO)NC(=O)[C@H](Cc4c[nH]c5ccccc45)NC(=O)[C@@H]4CCCN4C(=O)CNC(=O)[C@H](CC(N)=O)NC(=O)[C@@H](NC(=O)CNC(=O)[C@H](Cc4ccccc4)NC(=O)CN)CSSC[C@H](NC(=O)[C@H](Cc4ccc(O)cc4)NC(=O)CNC(=O)CNC(=O)[C@H](CCCCN)NC(=O)[C@H](Cc4ccc(O)cc4)NC(=O)CNC(=O)[C@H](CCCCN)NC1=O)C(=O)N[C@@H](C)C(=O)N[C@@H](CCCCN)C(=O)NCC(=O)NCC(=O)N[C@@H](Cc1ccccc1)C(=O)N[C@@H](CC(C)C)C(=O)N3)C(=O)N[C@@H](Cc1c[nH]cn1)C(=O)N[C@@H](CC(N)=O)C(=O)N[C@@H](Cc1c[nH]cn1)C(=O)N2` [PPI42] (H-GFGCNGPWSEDDMKCHNHCKSIKGYKGGYCAKGGFLCKCY-OH; disulfide 4-30, 15-37, 19-39), in series [1], the “pKa for (H16)” value was found to be 4.4 and the “pKa for (H18)” value is 6.4. In the series with female NMRI mice, the “Maximum Tolerated Dose (MTD)” value is reported as > 50 mg/kg and the “No Observed Adverse Effect Level (NOAEL)” value is listed as > 50 mg/kg.
`CC[C@H](C)[C@@H]1NC(=O)[C@H](CO)NC(=O)[C@H](CCCCN)NC(=O)[C@@H]2CSSC[C@@H](C(=O)N[C@@H](Cc3ccc(O)cc3)C(=O)O)NC(=O)[C@H](CCCCN)NC(=O)[C@@H]3CSSC[C@H](NC(=O)[C@H](CCC(N)=O)NC(=O)[C@H](CCSC)NC(=O)[C@H](CC(=O)O)NC(=O)[C@H](CC(=O)O)NC(=O)[C@H](CCC(=O)O)NC(=O)[C@H](CC(=O)O)NC(=O)[C@H](Cc4c[nH]c5ccccc45)NC(=O)[C@@H]4CCCN4C(=O)CNC(=O)[C@H](CC(N)=O)NC(=O)[C@@H](NC(=O)CNC(=O)[C@H](Cc4ccccc4)NC(=O)CN)CSSC[C@H](NC(=O)[C@H](Cc4ccc(O)cc4)NC(=O)CNC(=O)CNC(=O)[C@H](CCCCN)NC(=O)[C@H](Cc4ccc(O)cc4)NC(=O)CNC(=O)[C@H](CCCCN)NC1=O)C(=O)N[C@@H](C)C(=O)N[C@@H](CCCCN)C(=O)NCC(=O)NCC(=O)N[C@@H](Cc1ccccc1)C(=O)N[C@@H](C(C)C)C(=O)N3)C(=O)N[C@@H](Cc1c[nH]cn1)C(=O)N[C@@H](CC(N)=O)C(=O)N[C@@H](Cc1c[nH]cn1)C(=O)N2` [plectasin wildtype]: in series [2], the in vivo half-life entry is listed as “long in vivo half-life”, the serum stability result is given as “high serum stability” and the toxicity result was “low toxicity”.
Consider “Insulin: positive control known to form amyloid fibrils upon shaking at 40 °C”, for which the “Thioflavin T fluorescence (490 nm), end-point” value in series [3] turned out to be 13428.8.
Take “plectasin variant D9S Q14K V36L (PPI42) (peptide)”: the fraction of medium-sized oligomers and fibrils (% mass) in series [4] was < 2.5 % mass.

B1: Plectasin variant PPI42 (D9S Q14K V36L) (Pseudoplectania nigrella (the article says only 'fungal defensin'; species from outside knowledge); D9S;Q14K;V36L) (peptide)
chain: GFGCNGPWSEDDMKCHNHCKSIKGYKGGYCAKGGFLCKCY
Turning to B1, the pKa result is given as “around 4.4” with His16 (position 16, …) and “around 6.4” in the series with His18 (position 18, …).
